Results published in patent US20050154230A1, “Urea derivatives” (Bayer HealthCare AG, priority 2001, published 2005).
Read-outs that look alike come from different tables or passages of the source.

Columns and labels:
human VR1 = molecular target: T1, human VR1 (Homo sapiens, UniProt Q8NER1); assay: Capsaicin-induced Ca2+ influx in the human VR1-transfected CHO cell line (Assay 1); assay type: cell-based
T1 construct: expressed in transfected cells
Experimental: [Measurement of Capsaicin-Induced Ca^2+ Influx in the Human VR1-Transfected CHO Cell Line] (Assay 1)
(1) Establishment of the Human VR1-CHOluc9aeq Cell Line
The cloned hVR1 cDNA was constructed with pcDNA3 vector and transfected into a CHOluc9aeq cell line. The cell line contains aequorin and CRE-luciferase reporter genes as read-out signals. The transfectants were cloned by limiting dilution in selection medium (DMEM/F12 medium (Gibco BRL) supplemented with 10% FCS, 1.4 mM Sodium pyruvate, 20 mM HEPES, 0.15% Sodium bicarbonate, 100 U/ml penicillin, 100 μg/ml streptomycin, 2 mM glutamine, non-essential amino acids and 2 mg/ml G418). Ca^2+ influx was examined in the capsaicin-stimulated clones. […] The human VR1-CHOluc9aeq cells were maintained in the selection medium and passaged every 3-4 days at 1-2.5×10^5 cells/flask ([…]).
(2) Measurement of Ca^2+ Influx Using FDSS-3000
Human VR1-CHOluc9aeq cells were suspended in a culture medium which is the same as the selection medium except for G418 and seeded at a density of 1,000 cells per well into 384-well plates (black walled clear-base/Nalge Nunc International). […] After washing twice with assay buffer the cells were incubated with a test compound or vehicle for 20 min at 25° C. […] Integral R was calculated and compared with controls.

[1] = human VR1-CHOluc9aeq cells, 10 nM capsaicin, compound purity about 40 to 90%, read-out: hVR1 class

T1 sequence (Q8NER1 whole entry): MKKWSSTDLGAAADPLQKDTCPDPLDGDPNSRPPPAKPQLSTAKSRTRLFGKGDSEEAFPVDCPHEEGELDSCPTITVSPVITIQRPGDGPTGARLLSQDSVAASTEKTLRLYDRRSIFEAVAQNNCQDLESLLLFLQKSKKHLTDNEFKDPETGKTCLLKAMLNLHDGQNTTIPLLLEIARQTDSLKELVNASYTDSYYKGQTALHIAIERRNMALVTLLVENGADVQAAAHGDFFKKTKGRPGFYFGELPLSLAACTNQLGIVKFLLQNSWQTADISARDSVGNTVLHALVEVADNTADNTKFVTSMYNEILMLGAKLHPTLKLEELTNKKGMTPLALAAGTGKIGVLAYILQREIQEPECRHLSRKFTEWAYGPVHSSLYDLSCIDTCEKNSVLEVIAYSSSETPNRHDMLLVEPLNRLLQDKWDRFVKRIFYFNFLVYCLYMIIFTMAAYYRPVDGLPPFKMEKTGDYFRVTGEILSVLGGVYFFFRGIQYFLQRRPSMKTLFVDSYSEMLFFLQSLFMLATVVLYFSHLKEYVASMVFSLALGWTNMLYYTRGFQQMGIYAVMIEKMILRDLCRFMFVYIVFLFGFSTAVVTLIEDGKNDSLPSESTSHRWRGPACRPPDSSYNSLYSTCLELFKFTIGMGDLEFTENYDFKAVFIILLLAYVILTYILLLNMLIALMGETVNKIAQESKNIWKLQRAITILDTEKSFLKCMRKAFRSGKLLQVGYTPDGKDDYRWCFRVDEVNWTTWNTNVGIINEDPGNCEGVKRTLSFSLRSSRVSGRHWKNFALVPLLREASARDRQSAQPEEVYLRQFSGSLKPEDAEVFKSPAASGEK

Row | SMILES | IC50 (human VR1; [1]) [nM] | melting point | IC50 (human VR1) [nM]
1 | O=C(NCc1ccccc1)Nc1ccccc1CCO [Example 153] | 500 to 1000 | 149 to 150 °C | –
2 | O=C(Nc1ccccc1CCO)Nc1ccccc1Cc1ccccc1 [Example 157] | 500 to 1000 | 162 to 164 °C | –
3 | Cc1ccc2cc(NC(=O)Nc3ccccc3CCO)ccc2n1 [Example 165] | 500 to 1000 | 207 °C | –
4 | O=C(Nc1ccccc1CCO)Nc1cccc2ccc(O)cc12 [Example 166] | 500 to 1000 | 212 °C | –
5 | O=C(Nc1ccc(N2CCCCC2)cc1)Nc1ccccc1CCO [Example 168] | 500 to 1000 | 188 °C | –
6 | COc1ccc(-c2ccccc2)cc1NC(=O)Nc1ccccc1CCO [Example 173] | 100 to 500 | 178 to 180 °C | –
7 | O=C(Nc1cccc(OCc2ccccc2)c1)Nc1ccccc1CCO [Example 174] | < 100 | 146 to 148 °C | –
8 | Cc1ccccc1Oc1ccccc1NC(=O)Nc1ccccc1CCO [Example 175] | 500 to 1000 | 170 to 172 °C | –
9 | O=C(Nc1ccc(F)c(F)c1)Nc1ccccc1CCO [Example 179] | 500 to 1000 | 162 to 164 °C | –
10 | O=C(Nc1cc(F)cc(F)c1)Nc1ccccc1CCO [Example 180] | 100 to 500 | 188 to 189 °C | –
11 | Cc1ccc(NC(=O)Nc2ccccc2CCO)cc1F [Example 181] | 500 to 1000 | 184 to 186 °C | –
12 | O=C(Nc1ccc(F)c(C(F)(F)F)c1)Nc1ccccc1CCO [Example 184] | < 100 | 158 to 161 °C (dec.) | –
13 | N#Cc1ccc(NC(=O)Nc2ccccc2CCO)cc1C(F)(F)F [Example 186] | – | 171 °C | < 100
14 | O=C(Nc1ccc([N+](=O)[O-])c(C(F)(F)F)c1)Nc1ccccc1CCO [Example 187] | 100 to 500 | 149 to 150 °C | –
15 | O=C(Nc1cc(C(F)(F)F)ccc1F)Nc1ccccc1CCO [Example 189] | 500 to 1000 | 150 to 152 °C | –
16 | COc1ccc(OC)c(-c2cccc(NC(=O)Nc3ccccc3CCO)c2)c1 [Example 198] | 100 to 500 | 170 °C | –
17 | O=C(Nc1cccc(-c2ccc(F)cc2F)c1)Nc1ccccc1CCO [Example 199] | < 100 | 169 °C | –
18 | Cc1ccc(-c2cccc(NC(=O)Nc3ccccc3CCO)c2)cc1 [Example 200] | < 100 | 178 °C | –
19 | O=C(Nc1ccc(-c2ccccc2)cc1)Nc1ccccc1CCO [Example 201] | 100 to 500 | 194 °C | –
20 | O=C(Nc1ccc(Cl)c(-c2ccccc2)c1)Nc1ccccc1CCO [Example 202] | 100 to 500 | 185 °C | –
21 | O=C(Nc1cccc(-c2cc(F)cc(F)c2)c1)Nc1ccccc1CCO [Example 208] | < 100 | 169 °C | –
22 | O=C(Nc1cccc(-c2cc(Cl)ccc2Cl)c1)Nc1ccccc1CCO [Example 209] | < 100 | 142 °C | –
23 | O=C(Nc1cccc(-c2cccnc2)c1)Nc1ccccc1CCO [Example 212] | 500 to 1000 | 178.9 °C | –
24 | O=C(Nc1cccc(-c2cc(F)ccc2F)c1)Nc1ccccc1CCO [Example 213] | < 100 | 150 °C | –
25 | COc1ccc(NC(=O)Nc2ccccc2CCO)cc1OC [Example 219] | 500 to 1000 | 186 to 187 °C | –
26 | O=C(Nc1ccc2[nH]ncc2c1)Nc1ccccc1CCO [Example 221] | 500 to 1000 | 234 to 236 °C | –
27 | O=C(Nc1cccc(-c2ccc(C(F)(F)F)cc2)c1)Nc1ccccc1CCO [Example 222] | < 100 | 198 °C | –
28 | CC(=O)c1ccc(-c2cccc(NC(=O)Nc3ccccc3CCO)c2)cc1 [Example 224] | < 100 | 205 °C | –

Now from value to compound, other results behind:

Row | IC50 (human VR1; [1]) [nM] | melting point | SMILES | IC50 (human VR1) [nM]
29 | 500 to 1000 | 157 to 158 °C | COc1ccc(OC)c(NC(=O)Nc2ccccc2CCO)c1 [Example 151] | –
30 | 500 to 1000 | 180 to 182 °C | O=C(Nc1ccccc1CCO)Nc1ccccc1C(F)(F)F [Example 152] | –
31 | 500 to 1000 | 194 °C | O=C(Nc1cc(Cl)nc(Cl)c1)Nc1ccccc1CCO [Example 154] | –
32 | 500 to 1000 | 176 °C | CC(NC(=O)Nc1ccccc1CCO)c1cccc2ccccc12 (stereo not drawn) [Example 155] | –
33 | 500 to 1000 | 176 to 177 °C | CSc1ccc(NC(=O)Nc2ccccc2CCO)cc1 [Example 156] | –
34 | 100 to 500 | 164 to 166 °C | O=C(Nc1ccc(Cc2ccccc2)cc1)Nc1ccccc1CCO [Example 158] | –
35 | 500 to 1000 | 150 to 151 °C | O=C(Nc1ccc(Nc2ccccc2)cc1)Nc1ccccc1CCO [Example 159] | –
36 | 500 to 1000 | 190 to 191 °C | O=C(Nc1ccccc1CCO)Nc1ccccc1Oc1ccccc1 [Example 160] | –
37 | 500 to 1000 | 213 to 215 °C | N#Cc1ccc(-c2ccc(NC(=O)Nc3ccccc3CCO)cc2)cc1 [Example 161] | –
38 | 500 to 1000 | 204 °C | Cc1ccc2ccccc2c1NC(=O)Nc1ccccc1CCO [Example 164] | –
39 | < 100 | > 250 °C | O=C(Nc1ccc2c(c1)Cc1ccccc1-2)Nc1ccccc1CCO [Example 169] | –
40 | < 100 | 145 to 146 °C | O=C(Nc1cccc(Oc2ccccc2)c1)Nc1ccccc1CCO [Example 171] | –
41 | < 100 | 224 to 226 °C | CCn1c2ccccc2c2cc(NC(=O)Nc3ccccc3CCO)ccc21 [Example 172] | –
42 | < 100 | 164 to 168 °C (dec.) | Cc1ccc(Oc2ccc(NC(=O)Nc3ccccc3CCO)cc2)cc1 [Example 176] | –
43 | 500 to 1000 | 159 to 161 °C | O=C(Nc1ccccc1CCO)Nc1cccc(F)c1F [Example 182] | –
44 | 500 to 1000 | 172 to 174 °C | O=C(Nc1cc(F)c(F)cc1F)Nc1ccccc1CCO [Example 183] | –
45 | < 100 | 161 to 164 °C | O=C(Nc1ccc(Br)c(C(F)(F)F)c1)Nc1ccccc1CCO [Example 185] | –
46 | < 100 | 161 to 162 °C | COc1cc(NC(=O)Nc2ccccc2CCO)cc(C(F)(F)F)c1 [Example 188] | –
47 | 100 to 500 | 193 to 194 °C | O=C(Nc1ccc(F)c(Cl)c1)Nc1ccccc1CCO [Example 190] | –

Row | IC50 (human VR1; [1]) [nM] | melting point | SMILES | IC50 (human VR1) [nM]
48 | 100 to 500 | 186 to 187 °C | N#Cc1ccc(NC(=O)Nc2ccccc2CCO)cc1Cl [Example 191] | –
49 | 100 to 500 | 197 °C | O=C(Nc1ccc(-c2ccc(F)cc2)cc1)Nc1ccccc1CCO [Example 192] | –
50 | < 100 | 175 °C | O=C(Nc1cccc(-c2cccc(Cl)c2)c1)Nc1ccccc1CCO [Example 195] | –
51 | < 100 | 153 °C | O=C(Nc1cccc(-c2ccccc2Cl)c1)Nc1ccccc1CCO [Example 196] | –
52 | < 100 | 167 °C | Cc1ccc(C)c(-c2cccc(NC(=O)Nc3ccccc3CCO)c2)c1 [Example 197] | –
53 | < 100 | 195 °C | O=C(Nc1cccc(-c2cccs2)c1)Nc1ccccc1CCO [Example 203] | –
54 | < 100 | 166 °C | COc1ccc(-c2cccc(NC(=O)Nc3ccccc3CCO)c2)cc1 [Example 204] | –
55 | 100 to 500 | 130 °C | COc1ccccc1-c1cccc(NC(=O)Nc2ccccc2CCO)c1 [Example 205] | –
56 | < 100 | 191 °C | CSc1ccc(-c2cccc(NC(=O)Nc3ccccc3CCO)c2)cc1 [Example 206] | –
57 | < 100 | 181 °C | O=C(Nc1cccc(-c2ccc(F)c(F)c2)c1)Nc1ccccc1CCO [Example 207] | –
58 | < 100 | 171 to 172 °C | O=C(Nc1cccc(-c2ccccc2F)c1)Nc1ccccc1CCO [Example 210] | –
59 | < 100 | 188 °C | O=C(Nc1cccc(-c2cccc(F)c2)c1)Nc1ccccc1CCO [Example 211] | –
60 | < 100 | 113 °C | O=C(Nc1cccc(-c2cccc3ccccc23)c1)Nc1ccccc1CCO [Example 214] | –
61 | < 100 | 176 °C | O=C(Nc1cccc(-c2ccc(F)c(Cl)c2)c1)Nc1ccccc1CCO [Example 215] | –
62 | < 100 | 180 °C | O=C(Nc1cccc(-c2ccc(Cl)c(Cl)c2)c1)Nc1ccccc1CCO [Example 216] | –
63 | < 100 | 184 °C | O=C(Nc1cccc(-c2cc(Cl)cc(Cl)c2)c1)Nc1ccccc1CCO [Example 217] | –
64 | < 100 | 170 to 172 °C | O=C(Nc1ccc(Cl)c(-c2ccc(Cl)cc2)c1)Nc1ccccc1CCO [Example 218] | –
65 | 500 to 1000 | 183 to 184 °C | O=C(Nc1ccc2c(c1)OCO2)Nc1ccccc1CCO [Example 220] | –
66 | < 100 | 166 °C | O=C(Nc1cccc(-c2ccc(Cl)cc2Cl)c1)Nc1ccccc1CCO [Example 223] | –
